In US6696409B1 (priority 1996, dated 2004):
Marks after values point to notes of the source that are not given here.

Key:
Y2-like receptors = target: T1, Y2-like receptors (Rattus norvegicus, UniProt Q9ERC0); assay: Inhibition of the vagally evoked increase in pulse interval in anaesthetised rats (prejunctional activity); type: in vivo; conditions: compared with Ac[Leu28,Leu31]NPY(24-36)
T1 construct: from tissue; host or cells: anaesthetised Wistar rat, cardiac vagal nerve endings (in vivo)
T1 sequence (Q9ERC0 1-381): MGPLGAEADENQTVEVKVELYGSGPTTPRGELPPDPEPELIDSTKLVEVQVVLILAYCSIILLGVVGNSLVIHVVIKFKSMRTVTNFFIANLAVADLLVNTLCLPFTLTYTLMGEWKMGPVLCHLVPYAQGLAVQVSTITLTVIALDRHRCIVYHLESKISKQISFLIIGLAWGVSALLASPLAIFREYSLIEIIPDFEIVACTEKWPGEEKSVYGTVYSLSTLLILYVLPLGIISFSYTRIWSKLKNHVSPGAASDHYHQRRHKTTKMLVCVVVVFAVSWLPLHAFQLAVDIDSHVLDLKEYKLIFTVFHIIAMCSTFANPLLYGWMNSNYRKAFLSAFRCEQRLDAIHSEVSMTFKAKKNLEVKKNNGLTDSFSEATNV
Experimental: (§1) Experiments were carried out on adult rats (Wistar) of both sexes (250-350 g), anaesthetised with sodium pentobarbitone (Nembutal, Boehringer-Ingleheim; 60 mg/kg, i.p.). The trachea was cannulated and the animal artificially ventilated. The femoral vein was cannulated for administration of peptides and further doses of anaesthetic. The left femoral artery was cannulated to record arterial pressure. Both vagus nerves were cut. […] The frequency was chosen to increase pulse interval by approximately 100 ms, a submaximal effect on this variable. The electrocardiogram was measured using needle electrodes and monitored on one channel of an osciloscope. Pulse interval (the period between successive beats of the heart) was recorded beat-by-beat by triggering from ECG. Pulse interval and arterial pressure were recorded on the pen recorder.
Dose-response curves were constructed from group data for all rats. Because of the long time-course of action of the peptides tested, not all peptides were given to each rat. Usually however, each rat received neuropeptide Y and two other peptides.
(§2) As an indication of prejunctional activity two parameters were measured; the maximum percent inhibition of the increase in pulse interval evoked by stimulation of the vagus nerve following injection of peptide and the time to half recovery of this effect (T50). For pressor action, an indicator of postjunctional activity, two parameters were also measured; the peak pressor response following injection of peptide and the duration of the increase in blood pressure. These indices give a reliable measure of the actions of a peptide at pre- and postjunctional sites, and have been used previously in this laboratory for this purpose; Potter et al., 1989; Potter et al., 1991). Results were analysed using a one-way ANOVA.

Y1 receptors = target: T2, Y1 receptors (Rattus norvegicus, UniProt P21555); assay: Pressor response (increase in blood pressure) in anaesthetised rats (postjunctional activity); type: in vivo
T2 construct: from tissue; host or cells: anaesthetised Wistar rat, vasculature (in vivo)
T2 sequence (P21555 1-382): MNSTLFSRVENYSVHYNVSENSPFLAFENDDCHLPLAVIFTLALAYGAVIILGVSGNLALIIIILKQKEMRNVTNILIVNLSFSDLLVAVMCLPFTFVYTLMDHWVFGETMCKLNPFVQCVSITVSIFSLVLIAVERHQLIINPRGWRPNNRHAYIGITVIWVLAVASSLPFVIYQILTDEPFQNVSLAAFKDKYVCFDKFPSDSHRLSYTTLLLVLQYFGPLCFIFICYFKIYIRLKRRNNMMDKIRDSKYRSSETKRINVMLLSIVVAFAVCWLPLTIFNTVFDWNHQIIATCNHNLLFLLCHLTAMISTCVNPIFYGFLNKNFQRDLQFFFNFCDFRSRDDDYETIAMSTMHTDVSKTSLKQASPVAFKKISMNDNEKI
Experimental: as §1, with “The” for “The frequency was chosen to increase pulse interval by approximately 100 ms, a submaximal effect on this variable. The”
Dose-response curves were constructed from group data for all rats. Because of the long time-course of action of the peptides tested, not all peptides were given to each rat.
as §2, with “These indices give a reliable measure of the actions of a peptide at pre- and postjunctional sites, and have been used previously in this laboratory for this purpose; Potter et al., 1989; Potter et al., 1991).” left out

human Y1 receptor = target: T3, human Y1 receptor (Homo sapiens, UniProt P25929); assay: [125I]NPY receptor binding assay on SK-N-MC cells
T3 construct: host or cells: SK-N-MC cells (thawed, needle-disrupted cells)
T3 sequence (P25929 1-384): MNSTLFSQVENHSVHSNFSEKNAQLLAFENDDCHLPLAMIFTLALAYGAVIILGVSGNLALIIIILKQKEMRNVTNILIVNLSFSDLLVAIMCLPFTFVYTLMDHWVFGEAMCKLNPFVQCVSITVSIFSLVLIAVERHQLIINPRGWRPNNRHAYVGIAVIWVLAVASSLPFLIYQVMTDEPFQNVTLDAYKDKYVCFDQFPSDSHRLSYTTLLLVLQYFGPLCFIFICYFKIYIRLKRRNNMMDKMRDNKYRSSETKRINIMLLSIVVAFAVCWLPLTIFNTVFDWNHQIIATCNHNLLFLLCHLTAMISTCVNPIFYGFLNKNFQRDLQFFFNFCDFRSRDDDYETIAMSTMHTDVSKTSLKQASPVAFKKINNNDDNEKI
Experimental: (§3) SK-N-MC cells expressing the human Y1 receptor and SMS-MSN cells expressing the human Y2 receptor were obtained from the ATCC. They were cultured in 1:1 DMEM:Ham's F12 medium (ICN) containing 10% fetal calf serum, 0.1% non-essential amino acids, 0.2 mM glutamine, and 0.056% sodium bicarbonate. Confluent cells were harvested in scraping and pellets were stored at −80° C. On the day of use cells were thawed, washed once in binding buffer salts, passed several times through a 22 ga. needle, and the protein content was assayed using bicinchoninic acid (BCA kit, Pierce).
(§4) Just before use, plates were filtered and washed twice with 50 mM Tris-HCI pH 7.4/0.1% BSA. […] Binding was terminated by filtration. Filters were washed twice by rapid filtration with […] volumes of 50 mM Tris-HCI pH 7.4/0.1% BSA at 2° C., and counted on an LKB gamma counter. Specific binding was analysed by non-linear regression using a single-site fitting function (Graphpad Prism). Non-specific binding was defined by binding in the presence of 1 μM competitor.

human Y2 receptor = target: T4, human Y2 receptor (Homo sapiens, UniProt P49146); assay: [125I]NPY receptor binding assay on SMS-MSN cells
T4 construct: host or cells: SMS-MSN cells (thawed, needle-disrupted cells)
T4 sequence (P49146 1-381): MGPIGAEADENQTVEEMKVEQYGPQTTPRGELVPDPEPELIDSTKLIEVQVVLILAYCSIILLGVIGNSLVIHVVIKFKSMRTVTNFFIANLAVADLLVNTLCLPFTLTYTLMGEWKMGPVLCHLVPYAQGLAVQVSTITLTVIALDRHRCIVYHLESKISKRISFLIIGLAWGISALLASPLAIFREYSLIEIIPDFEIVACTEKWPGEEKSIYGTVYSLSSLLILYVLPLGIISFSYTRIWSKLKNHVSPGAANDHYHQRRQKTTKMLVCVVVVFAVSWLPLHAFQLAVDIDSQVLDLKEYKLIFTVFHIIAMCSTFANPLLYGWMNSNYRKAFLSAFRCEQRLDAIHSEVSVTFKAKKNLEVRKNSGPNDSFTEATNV
Experimental: as §3, §4

[1] = test system: Y2-like receptors mediating inhibition of transmitter release from renal nerves; assay: Increase of renal vascular resistance elicited by renal sympathetic nerve stimulation; type: in vivo, dog; conditions: 40 nmol dose; FIG. 1
Experimental: Experiments were carried out in six, adult, mongrel dogs of both sexes weighing between 18 and 26 kg. The dogs were anaesthetised with a bolus injection of sodium pentobarbitone (36 mg/kg intravenous; Nembutal, Boehringer Ingelheim) and then maintained on an infusion (2-3 mg/kg/hr). The animal was artificially ventilated, maintained at constant temperature and blood pressure and heart rate were monitored continuously.
The left kidney was exposed retroperitoneally and renal arterial blood flow was monitored continuously (Pernow & Lundberg, 1989a), using a transonic flow probe (Transonic System Inc., N.Y.). Postganglionic nerves to the kidney were isolated, cut and placed over bipolar, platinum electrodes for stimulation (1-10 Hz, 5-10 V, 1-5 msec).
The renal nerve was stimulated over a range of frequencies (1-10 Hz) for 30 secs and a frequency-response curve constructed. The responses were measured at the peak change in flow. […] Responses were reported as change in vascular resistance.

[2] = target: T5, neuropeptide Y Y2 receptor subtype (Homo sapiens, UniProt P49146); conditions: SMS-KAN cells; cited from earlier work
T5 construct: host or cells: SMS-KAN human neuroblastoma cells
T5 sequence (P49146 1-381): T4 sequence (P49146 1-381)

[3] = target: T6, neuropeptide Y Y1 receptor type (Homo sapiens, UniProt P25929); conditions: SK-N-MC cells; cited from earlier work
T6 construct: host or cells: SK-N-MC human cells
T6 sequence (P25929 1-384): T3 sequence (P25929 1-384)

[4] = target: T7, human neuropeptide Y Y1 receptor (Homo sapiens, UniProt P25929); conditions: fibroblast cells; cited from earlier work
T7 sequence (P25929 1-384): T3 sequence (P25929 1-384)

[5] = anaesthetised rats, †: No response to 10 nmole dose

Substance | Increase in BP (rel to NPY) (Y1 receptors; [5]) | other results
Ac-ARAALNAATRQRY-NH2 [Ac[A24,26,27,30,31,L28]NPY24-36] | 0† | Inhibition of the effect of vagal stimulation on heart rate, in words (Y2-like receptors): enhanced in vivo activity at Y2 receptors; IC50 (human Y1 receptor): > 1000 nM
Ac-ARHALNLLTRQRY-NH2 [Ac[A24,A27,L28,L31]NPY24-36] | 0† | Inhibition of the effect of vagal stimulation on heart rate, in words (Y2-like receptors): enhanced in vivo activity at Y2 receptors; Direct effect on the circulation (Y1 receptors; 40 nmol dose): no direct effect on the circulation; Affinity for NPY Y2 receptors, in words (human Y2 receptor): high affinity for NPY Y2 receptors; Inhibition of the increase of renal vascular resistance elicited by renal nerve stimulation [1]: almost completely inhibited the effect of nerve stimulation
Ac-ARHYLNLLTRQRY-NH2 [Ac[A24,L28,L31]NPY24-36] | 0† | IC50 (human Y2 receptor): 19.3 nM
Ac-LAHYLNLLTRQRY-NH2 [Ac[A25,L28,L31]NPY24-36] | 0† | –
Ac-LAHYRNLLTRQRY-NH2 [Ac[A25,R28,L31]NPY24-36] | 0† | –
Ac-LRAYLNLLTRQRY-NH2 [Ac[A26,L28,L31]NPY24-36] | 0† | –
Ac-LRHALNLLTRQRY-NH2 [Ac[A27,L28,L31]NPY24-36] | 0† | –
Ac-LRHYANLLTRQRY-NH2 [Ac[A28,L31]NPY24-36] | 0† | –
Ac-LRHYLALLTRQRY-NH2 [Ac[L28,A29,L31]NPY24-36] | 0† | –
Ac-LRHYLNALTRQRY-NH2 [Ac[L28,A30,L31]NPY24-36] | 0† | –
Ac-LRHYLNLATRQRY-NH2 [Ac[L28,A31]NPY24-36] | 0† | –
Ac-LRHYLNLLARQRY-NH2 [Ac[L28,L31,A32]NPY24-36] | 0† | –
Ac-LRHYLNLLTRQRY-NH2 [Ac[L28,L31]NPY24-36] [listing 1 of 2 here] | – | Increase in BP (rel to NPY) (Y1 receptors; rat, in vivo): 0†; Affinity for the neuropeptide Y Y2 receptor subtype, in words [2]: significant affinity; Affinity for the neuropeptide Y Y1 receptor type, in words [3]: no affinity; Stimulation of the Y1 receptor to induce an increase in cytosolic calcium [4]: did not stimulate
Ac-LRHYLNLLTRQRY-NH2 [Ac[L28,L31]NPY24-36] [listing 2 of 2 here] | – | IC50 (human Y1 receptor): > 100 nM
AcNPY24-36 [reference compound] | 0† | –
Ac[A26,27,L28,31]NPY24-36 (Ac-LRAALNLLTRQRY-NH2; ends and bridges not checked) | – | Inhibition of the effect of vagal stimulation on heart rate, in words (Y2-like receptors): enhanced in vivo activity at Y2 receptors
Ac[L28,I30]NPY24-36 (Ac-LRHYLNIITRQRY-NH2; ends and bridges not checked; UniProt P01303 52-64, looked up, variant I28L L30I) | 0† | –
